Experimental data taken from patent US20050239656A1, “Pyridine compounds or salts thereof and herbicides containing the same” (priority 2002, published 2005).

What follows are compounds tested on barnyardgrass (assay: Test Example 1: foliage treatment, upland pot test). Details: active ingredient 500 g/ha, observed 18th to 23rd day, 0 = non-treated, 100 = complete kill.
Assay type: in vivo, Echinochloa crus-galli L.
Summary of the method: (§1)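 Each plant species was sprayed once on its foliage, with wheat at 1.3–2.4, soybean at 0.1–0.4, barnyardgrass at 1.3–2.8 and rice at 1.2–2.6 leaves. Visual ratings of growth inhibition, 0 to 100%, followed 18–23 days later.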

**Q.** For `CC(Oc1ccc(Br)cc1)C(=O)N(C)C(c1cnccc1C(F)(F)F)C(C)C` (mixture of isomers) [I-132], which “Growth controlling degree (%) Barnyardgrass” value is on record?
**A.** 70%

These compounds were tested on green foxtail (assay: Test Example 1: foliage treatment, upland pot test). Details: active ingredient 500 g/ha, observed 18th to 23rd day, 0 = non-treated, 100 = complete kill.
Assay type: in vivo, Setaria viridis L.

**Q.** Which “Growth controlling degree (%) Green foxtail” value does the source give for `CC(Oc1ccc(Br)cc1)C(=O)N(C)C(c1cnccc1C(F)(F)F)C(C)C` (mixture of isomers) [I-132] here?
**A.** 60%

Each compound was assayed on japanese bulrush (assay: Test Example 3: paddy pot test, application under submerged conditions). Details: active ingredient 250 g/ha; submerged application at 0.5 leaf stage; visually observed 14 days after application; 0 = non-treated, 100 = complete kill.
Assay type: in vivo, Scirpus juncoides
Summary of the method: (§2)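 Seeds were sown in flooded paddy soil (0.5–1 cm water), wapato tubers were planted 1–2 days later, and water was then held at 3–4 cm. Diluted wettable powder or emulsifiable concentrate was pipetted into the water at the 0.5 leaf or primary leaf stage. Growth control was visually scored at 14 days (0–100%).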

**Q.** How did the “Growth controlling degree (%) Japanese bulrush” value turn out when `CC(Oc1ccc(Br)cc1)C(=O)N(C)C(c1cnccc1C(F)(F)F)C(C)C` (mixture of isomers) [I-132] was run?
**A.** 80%

What follows are compounds tested on crabgrass (assay: Test Example 1: foliage treatment, upland pot test). Details: active ingredient 500 g/ha, observed 18th to 23rd day, 0 = non-treated, 100 = complete kill.
Assay type: in vivo, Digitaria sanguinalis L.

**Q.** For `CC(Oc1ccc(Br)cc1)C(=O)N(C)C(c1cnccc1C(F)(F)F)C(C)C` (mixture of isomers) [I-132], which “Growth controlling degree (%) Crabgrass” value is on record?
**A.** 90%

The compounds below were run on barnyardgrass (assay: Test Example 2: soil surface treatment, upland pot test). Details: active ingredient 500 g/ha, observed 20th to 28th day.
Assay type: in vivo, Echinochloa crus-galli L.
Summary of the method: (§3)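 Upland soil in pots of 1/170,000 ha is sown; on day 1 after sowing the formulated compound (wettable powder or emulsifiable concentrate, predetermined a.i. amount, water volume 1,500 L/ha) is applied to the soil surface with a small sprayer. Percent control is judged by eye 20–28 days later.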

**Q.** `CC(Oc1ccc(Br)cc1)C(=O)N(C)C(c1cnccc1C(F)(F)F)C(C)C` (mixture of isomers) [I-132] was tested. Which “Growth controlling degree (%) Barnyardgrass” value did it give?
**A.** 98%

These compounds were tested on wheat (assay: Test Example 1: foliage treatment, upland pot test). Details: crop, active ingredient 500 g/ha, observed 18th to 23rd day, 0 = non-treated, 100 = complete kill.
Assay type: in vivo, Triticum spp.
From the text: Upland field soil was put into a 1/170,000 ha pot, and seed of various plants were sown. Then, when the plants reached predetermined leaf stages ((1) barnyardgrass: 1.3 to 2.8 leaf stages, (2) crabgrass: 1.0 to 2.8 leaf stages, (3) green foxtail: 1.3 to 2.6 leaf stages, (4) redroot pigweed: 0.1 to 1.2 leaf stages, (5) prickly sida: 0.1 to 1.2 leaf stages, (6) velvetleaf: 0.1 to 1.2 leaf stages, (7) tall morningglory: 0.1 to 1.5 leaf stages, (8) rice: 1.2 to 2.6 leaf stages, (9) wheat: 1.3 to 2.4 leaf stages, (10) corn, 2.1 to 3.2 leaf stages, (11) soybean: 0.1 to 0.4 leaf stage), a wettable powder or emulsifiable concentrate having the compound of the present invention formulated in accordance with a usual formulation method, was weighed so that the active ingredient would be a predetermined amount, and diluted with water in an amount of 500 L/ha. To the diluted solution, 0.1% (v/v) of agricultural spreader was added. The herbicide thus adjusted was applied by a small size sprayer for foliage treatment. On the 18th to 23rd days after the application of the herbicide, the growth of the respective plants was visually observed, and the herbicidal effects were evaluated by the growth controlling degrees (%) ranging from 0 (equivalent to the non-treated plot) to 100 (complete kill), whereby the results shown in Table 3, were obtained.

**Q.** How did the “Growth controlling degree (%) wheat” value turn out when `CC(Oc1ccc(Br)cc1)C(=O)N(C)C(c1cnccc1C(F)(F)F)C(C)C` (mixture of isomers) [I-132] was run?
**A.** 10%

The compounds below were run on prickly sida (assay: Test Example 1: foliage treatment, upland pot test). Details: active ingredient 500 g/ha, observed 18th to 23rd day, 0 = non-treated, 100 = complete kill.
Assay type: in vivo, Sida spinosa L.

**Q.** Which “Growth controlling degree (%) Prickly sida” value does the source give for `CC(Oc1ccc(Br)cc1)C(=O)N(C)C(c1cnccc1C(F)(F)F)C(C)C` (mixture of isomers) [I-132] here?
**A.** 80%

Each compound was assayed on corn (assay: Test Example 1: foliage treatment, upland pot test). Details: crop, active ingredient 500 g/ha, observed 18th to 23rd day, 0 = non-treated, 100 = complete kill.
Assay type: in vivo, Zea mays L.
Summary of the method: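 Corn seeds were sown in upland field soil held in a 1/170,000 ha pot and grown to the 2.1 to 3.2 leaf stage. A wettable powder or emulsifiable concentrate of the test compound was diluted with water at 500 L/ha, given 0.1% (v/v) agricultural spreader, and sprayed onto the foliage with a small sprayer. Growth controlling degree (%) was scored visually 18th to 23rd days later, from 0 (non-treated) to 100 (complete kill).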

**Q.** For `CC(Oc1ccc(Br)cc1)C(=O)N(C)C(c1cnccc1C(F)(F)F)C(C)C` (mixture of isomers) [I-132], which “Growth controlling degree (%) Corn” value is on record?
**A.** 80%

Each compound was assayed on soybean (assay: Test Example 2: soil surface treatment, upland pot test). Details: active ingredient 500 g/ha, observed 20th to 28th day.
Assay type: in vivo, Glycine max Merr.
Summary of the method: as §3

**Q.** With `CC(Oc1ccc(Br)cc1)C(=O)N(C)C(c1cnccc1C(F)(F)F)C(C)C` (mixture of isomers) [I-132] as the compound, how does the “Growth controlling degree (%) Soyabean” value read?
**A.** 10%

The compounds below were run on rice (var. Nihonbare) (assay: Test Example 3: paddy pot test, transplanted rice). Details: active ingredient 250 g/ha, applied 4th day after transplantation, visually observed 21st day after application, 0 = non-treated, 100 = complete kill.
Assay type: in vivo, Oryza sativa L.
Summary of the method: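 Rice (2-leaf stage) was transplanted 3 cm deep into puddled, leveled paddy soil under 3–4 cm flooding. On day 4 after transplanting, diluted wettable powder or emulsifiable concentrate was pipetted onto the water at a predetermined active-ingredient dose. Growth control (0 = untreated, 100 = complete kill) was scored visually 21 days later.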

**Q.** For `CC(Oc1ccc(Br)cc1)C(=O)N(C)C(c1cnccc1C(F)(F)F)C(C)C` (mixture of isomers) [I-132], which “Growth controlling degree (%) Rice” value is on record?
**A.** 20%

These compounds were tested on rice (assay: Test Example 2: soil surface treatment, upland pot test). Details: active ingredient 500 g/ha, observed 20th to 28th day.
Assay type: in vivo, Oryza sativa L.
Summary of the method: as §3

**Q.** How did the “Growth controlling degree (%) Rice” value turn out when `CC(Oc1ccc(Br)cc1)C(=O)N(C)C(c1cnccc1C(F)(F)F)C(C)C` (mixture of isomers) [I-132] was run?
**A.** 10%

What follows are compounds tested on soybean (assay: Test Example 1: foliage treatment, upland pot test). Details: crop, active ingredient 500 g/ha, observed 18th to 23rd day, 0 = non-treated, 100 = complete kill.
Assay type: in vivo, Glycine max Merr.
Summary of the method: as §1

**Q.** `CC(Oc1ccc(Br)cc1)C(=O)N(C)C(c1cnccc1C(F)(F)F)C(C)C` (mixture of isomers) [I-132] was tested. Which “Growth controlling degree (%) Soybean” value did it give?
**A.** 80%

These compounds were tested on crabgrass (assay: Test Example 2: soil surface treatment, upland pot test). Details: active ingredient 500 g/ha, observed 20th to 28th day.
Assay type: in vivo, Digitaria sanguinalis L.
Summary of the method: as §3

**Q.** For `CC(Oc1ccc(Br)cc1)C(=O)N(C)C(c1cnccc1C(F)(F)F)C(C)C` (mixture of isomers) [I-132], which “Growth controlling degree (%) Crabgrass” value is on record?
**A.** 90%

Each compound was assayed on redroot pigweed in the same assay as above. Details: active ingredient 500 g/ha, observed 20th to 28th day.
Assay type: in vivo, Amaranthus retroflexus L.
Summary of the method: as §3

**Q.** Which “Growth controlling degree (%) Redroot pigweed” value does the source give for `CC(Oc1ccc(Br)cc1)C(=O)N(C)C(c1cnccc1C(F)(F)F)C(C)C` (mixture of isomers) [I-132] here?
**A.** 10%

The compounds below were run on prickly sida in the same assay as above. Details: active ingredient 500 g/ha, observed 20th to 28th day.
Assay type: in vivo, Sida spinosa L.
Summary of the method: as §3

**Q.** With `CC(Oc1ccc(Br)cc1)C(=O)N(C)C(c1cnccc1C(F)(F)F)C(C)C` (mixture of isomers) [I-132] as the compound, how does the “Growth controlling degree (%) Prickly sida” value read?
**A.** 70%

What follows are compounds tested on redroot pigweed (assay: Test Example 1: foliage treatment, upland pot test). Details: active ingredient 500 g/ha, observed 18th to 23rd day, 0 = non-treated, 100 = complete kill.
Assay type: in vivo, Amaranthus retroflexus L.

**Q.** Which “Growth controlling degree (%) Redroot pigweed” value does the source give for `CC(Oc1ccc(Br)cc1)C(=O)N(C)C(c1cnccc1C(F)(F)F)C(C)C` (mixture of isomers) [I-132] here?
**A.** 70%

The compounds below were run on corn (assay: Test Example 2: soil surface treatment, upland pot test). Details: active ingredient 500 g/ha, observed 20th to 28th day.
Assay type: in vivo, Zea mays L.
Summary of the method: as §3

**Q.** How did the “Growth controlling degree (%) Corn” value turn out when `CC(Oc1ccc(Br)cc1)C(=O)N(C)C(c1cnccc1C(F)(F)F)C(C)C` (mixture of isomers) [I-132] was run?
**A.** 0%

Each compound was assayed on velvetleaf in the same assay as above. Details: active ingredient 500 g/ha, observed 20th to 28th day.
Assay type: in vivo, Abutilon theophrasti MEDIC.
Summary of the method: as §3

**Q.** How did the “Growth controlling degree (%) Velvetleaf” value turn out when `CC(Oc1ccc(Br)cc1)C(=O)N(C)C(c1cnccc1C(F)(F)F)C(C)C` (mixture of isomers) [I-132] was run?
**A.** 0%

What follows are compounds tested on velvetleaf (assay: Test Example 1: foliage treatment, upland pot test). Details: active ingredient 500 g/ha, observed 18th to 23rd day, 0 = non-treated, 100 = complete kill.
Assay type: in vivo, Abutilon theophrasti MEDIC.

**Q.** `CC(Oc1ccc(Br)cc1)C(=O)N(C)C(c1cnccc1C(F)(F)F)C(C)C` (mixture of isomers) [I-132] was tested. Which “Growth controlling degree (%) Velvetleaf” value did it give?
**A.** 60%

What follows are compounds tested on barnyardgrass (assay: Test Example 3: paddy pot test, application under submerged conditions). Details: active ingredient 250 g/ha; submerged application at 0.5 leaf stage; visually observed 14 days after application; 0 = non-treated, 100 = complete kill.
Assay type: in vivo, Echinochloa crus-galli L.
Summary of the method: as §2

**Q.** With `CC(Oc1ccc(Br)cc1)C(=O)N(C)C(c1cnccc1C(F)(F)F)C(C)C` (mixture of isomers) [I-132] as the compound, how does the “Growth controlling degree (%) Barnyardgrass” value read?
**A.** 100%

Each compound was assayed on wheat (assay: Test Example 2: soil surface treatment, upland pot test). Details: active ingredient 500 g/ha, observed 20th to 28th day.
Assay type: in vivo, Triticum spp.
Summary of the method: as §3

**Q.** With `CC(Oc1ccc(Br)cc1)C(=O)N(C)C(c1cnccc1C(F)(F)F)C(C)C` (mixture of isomers) [I-132] as the compound, how does the “Growth controlling degree (%) wheat” value read?
**A.** 10%

The compounds below were run on rice (assay: Test Example 1: foliage treatment, upland pot test). Details: crop, active ingredient 500 g/ha, observed 18th to 23rd day, 0 = non-treated, 100 = complete kill.
Assay type: in vivo, Oryza sativa L.
Summary of the method: as §1

**Q.** How did the “Growth controlling degree (%) Rice” value turn out when `CC(Oc1ccc(Br)cc1)C(=O)N(C)C(c1cnccc1C(F)(F)F)C(C)C` (mixture of isomers) [I-132] was run?
**A.** 10%
